Measurements as given in patent publication US11008290B2, “Halogenated quinoline derivatives as antimicrobial agents” (University of Florida Research Foundation, Incorporated, priority 2015, dated 2021).
≈ marks a conversion by molar mass, not a printed value. Like-named read-outs stand apart in the source and are kept apart here.

Key:
[1] = tested on: methicillin-resistant Staphylococcus aureus-2 (MRSA-2; clinical isolate); assay: Minimum inhibitory concentration (MIC) susceptibility assay, broth microdilution; format: cell-based
Protocol: (§1) The minimum inhibitory concentration (MIC) for each compound was determined by the broth microdilution method as recommended by the Clinical and Laboratory Standards Institute (CLSI). In a 96-well plate, eleven two-fold serial dilutions of each compound were made in a final volume of 100 μL Luria Broth. Each well was inoculated with ˜10^5 bacterial cells at the initial time of incubation, prepared from a fresh log phase culture (OD600 of 0.5 to 1.0 depending on bacterial strain). […] The concentration range tested for each compound during this study was 0.10 to 100 μM. DMSO served as the vehicle and negative control in each microdilution MIC assay. DMSO was serially diluted with a top concentration of 1% v/v. Bacterial strains used: methicillin-resistant Staphylococcus aureus-2 (MRSA-2; clinical isolate from Shands Hospital in Gainesville, Fla.), methicillin-resistant Staphylococcus epidermidis (MRSE; ATCC 35984), vancomycin-resistant Enterococcus faecium (VRE, ATCC 700221).

[2] = tested on: vancomycin-resistant Enterococcus faecium (VRE, ATCC 700221); assay: as above; format: cell-based; conditions: read-out: VRE MIC
Protocol: as §1

MRSA BAA-1707 = assay: Calgary Biofilm Device (CBD) MBC/MBEC determination; format: cell-based, Staphylococcus aureus; conditions: for MBC: Staphylococcus aureus, read-out: MRSA BAA-1707 MBC; for MRSA BAA-1707 MBEC: biofilm eradication, second value of cell
Protocol: (§2) Biofilm eradication experiments were performed using the Calgary Biofilm Device to determine MBC/MBEC values for various compounds of interest (Innovotech, product code: 19111). The Calgary device (96-well plate with lid containing 96 total pegs to establish biofilms; 1 peg/well) was inoculated with 125 μL of a mid-log phase culture diluted 1,000-fold in tryptic soy broth with 0.5% glucose (TSBG) to establish bacterial biofilms after incubation at 37° C. for 24 hours. The lid of the Calgary device was then removed, washed and transferred to another 96-well plate containing 2-fold serial dilutions of the test compounds (the “challenge plate”). The total volume of media with compound in each well in the challenge plate was 150 μL. The Calgary device was then incubated at 37° C. for 24 hours. The lid was then removed from the challenge plate and MBC/MBEC values were determined using different final assays. […] The MBC values were determined as the concentration giving a lack of visible bacterial growth (e.g., turbidity). For determination of MBEC values, the Calgary device lid (with attached pegs/treated biofilms) was transferred to a new 96-well plate containing 150 μL of fresh TSBG media in each well and incubated for 24 hours at 37° C. to allow viable biofilms to grow and disperse resulting in turbidity after the incubation period. […] In select experiments, treated pegs from the Calgary device were removed from lead biofilm eradicators after final incubation, sonicated for 30 minutes in PBS and plated out to determine biofilm cell killing (e.g., colony forming unit per milliliter, CFU/mL).

[3] = tested on: MRSA-2 planktonic cells and biofilms; assay: as above; format: cell-based, Staphylococcus aureus; conditions: CBD; for MBC: planktonic killing, first value of MBC/MBEC cell
Protocol: as §2

[4] = tested on: MRSE (ATCC 35984) planktonic cells and biofilms; assay: as above; format: cell-based, Staphylococcus epidermidis; conditions: Staphylococcus epidermidis
Protocol: as §2

[5] = tested on: VRE (ATCC 700221) planktonic cells and biofilms; assay: as above; format: cell-based, Enterococcus faecium; conditions: Enterococcus
Protocol: as §2

human red blood cells = assay: Hemolysis assay; format: cell-based
Protocol: Freshly drawn human red blood cells (hRBC with ethylenediaminetetraacetic acid (EDTA) as an anticoagulant) were washed with Tris-buffered saline (0.01M Tris-base, 0.155M sodium chloride (NaCl), pH 7.2) and centrifuged for 5 minutes at 3500 rpm. The washing was repeated three times with the buffer. In 96-well plate, the test compounds were added to the buffer. […] The plate was then incubated for 1 hour at 37° C. After incubation, the plate is centrifuged for 5 minutes at 3500 rpm. Then 80 μL of the supernatant were transferred to another 96-well plate and the Optical Density (OD) was read at 405 nm. […] The percent of hemolysis was calculated as (OD405 of the compound-OD405 DMSO)/(OD405 Triton X-OD405 buffer).

[6] = tested on: methicillin-resistant Staphylococcus epidermidis (MRSE; ATCC 35984); assay: Minimum inhibitory concentration (MIC) susceptibility assay, broth microdilution; format: cell-based; conditions: read-out: MRSE MIC
Protocol: as §1

MRSA-2 = assay: Mechanistic investigations with metal(II)-cations (MIC assay with 200 μM metal salt); format: cell-based, Staphylococcus aureus; conditions: MRSA-2; for Fold Δ (MIC w/Cu^2+) / Fold Δ (MIC w/Fe^2+) / Fold Δ (MIC w/Zn^2+): change in antibacterial activity according to MIC values; for MIC: Staphylococcus aureus
Protocol: as §1

[7] = Staphylococcus, MRSA, Table 3, at least three independent experiments, read-out: MRSA-2 MIC
[8] = Table 4, planktonic killing, CBD, first value of cell
[9] = Staphylococcus aureus, MRSA, Table 3, read-out: MRSA-2 MBC
[10] = Table 3, planktonic killing, CBD, first value of cell, read-out: MRSE MBC
[11] = Table 3, planktonic killing, CBD, first value of cell, footnote c = lowest concentration tested, read-out: VRE MBC
[12] = Staphylococcus, MRSA, read-out: MIC
[13] = Staphylococcus epidermidis, Table 3
[14] = 200 μM ammonium iron (II) sulfate hexahydrate, read-out: MIC w/Fe^2+
[15] = 200 μM copper (II) sulfate, read-out: MIC w/Cu^2+
[16] = 200 μM zinc (II) chloride, read-out: MIC w/Zn^2+
[17] = Staphylococcus epidermidis, Table 2, ATCC 35984
[18] = Table 2, read-out: MRSA-2 Clinical Isolate MBC
[19] = Staphylococcus, MRSA, Table 2, 2 to 6 independent experiments, read-out: MRSA-2 MIC
[20] = Table 2, human red blood cells, 1 hour at 37° C.

Row | Compound | MIC [1, 7] | MIC ([2]; Table 3) | MBC (MRSA BAA-1707; [8]) | MBC [3, 9] | MBC [4, 10] | MBC [5, 11] | % Haemolysis at 200 μM (human red blood cells; human, 1 h, pH 7.2) | MIC [1, 12] | MIC [6, 13] | MIC [6, 17] | MRSA BAA-1707 MBEC (MRSA BAA-1707; Table 4, CBD) | further results
1 | CCCc1ccc2c(Br)cc(Br)c(O)c2n1 [A-HQ-3] | 0.78 µM (≈ 0.269 µg/mL) | 0.78 µM (≈ 0.269 µg/mL) | 31.3 µM (≈ 10.8 µg/mL) | 125 µM (≈ 43.1 µg/mL) | 9.38 µM (≈ 3.24 µg/mL) | 2 µM (≈ 0.69 µg/mL) | ≤1% |  |  |  |  | 
2 | CCCc1ccc2c(I)cc(I)c(O)c2n1 [A-HQ-4] | 1.56 µM (≈ 0.685 µg/mL) | 0.39 µM (≈ 0.171 µg/mL) |  | 188 µM (≈ 82.5 µg/mL) | 125 µM (≈ 54.9 µg/mL) | 7.8 µM (≈ 3.42 µg/mL) | ≤1% | 1.56 µM (≈ 0.685 µg/mL) | 1.17 µM (≈ 0.514 µg/mL) |  |  | Fold Δ (MIC w/Cu^2+) (MRSA-2): +8 fold; Fold Δ (MIC w/Fe^2+) (MRSA-2): +64 fold; Fold Δ (MIC w/Zn^2+) (MRSA-2): −8 fold; MIC (MRSA-2; [14]): > 100 µM; MIC (MRSA-2; [15]): 12.5 µM; MIC (MRSA-2; [16]): 0.2 µM
3 | CC(C)Cc1ccc2c(Br)cc(Br)c(O)c2n1 [A-HQ-5] | 0.78 µM (≈ 0.28 µg/mL) | 100 µM (≈ 35.9 µg/mL) | 31.3 µM (≈ 11.2 µg/mL) |  |  |  | 12.3% |  |  |  |  | 
4 | Oc1c(Br)cc(Br)c2ccc(CCc3ccc(Br)cc3)nc12 [A-HQ-7] | 9.38 µM (≈ 4.56 µg/mL) | 2.35 µM (≈ 1.14 µg/mL) |  | 375 µM (≈ 182 µg/mL) | 250 µM (≈ 122 µg/mL) | 9.38 µM (≈ 4.56 µg/mL) | ≤1% | 9.38 µM (≈ 4.56 µg/mL) | 1.17 µM (≈ 0.569 µg/mL) |  |  | Fold Δ (MIC w/Cu^2+) (MRSA-2): +11 fold; Fold Δ (MIC w/Fe^2+) (MRSA-2): +11 fold; Fold Δ (MIC w/Zn^2+) (MRSA-2): −8 fold; MIC (MRSA-2; [14]): > 100 µM; MIC (MRSA-2; [15]): > 100 µM; MIC (MRSA-2; [16]): 1.17 µM
5 | CCCCCCCCCC(=O)N[C@@H](Cc1c[nH]c2ccccc12)C(=O)N[C@H](CC(N)=O)C(=O)N[C@@H](CC(=O)O)C(=O)N[C@@H]1C(=O)NCC(=O)N[C@@H](CCCN)C(=O)N[C@@H](CC(=O)O)C(=O)N[C@H](C)C(=O)N[C@@H](CC(=O)O)C(=O)NCC(=O)N[C@H](CO)C(=O)N[C@@H]([C@H](C)CC(=O)O)C(=O)N[C@@H](CC(=O)c2ccccc2N)C(=O)O[C@@H]1C [Daptomycin, reference compound] |  |  | 125 µM (≈ 203 µg/mL) | 62.5 µM (≈ 101 µg/mL) |  |  | 1.7% |  |  | 12.5 µM (≈ 20.3 µg/mL) | unable to eradicate | MIC ([6]; Table 3): 12.5 µM (≈ 20.3 µg/mL); MBC [3, 18]: 62.5 µM (≈ 101 µg/mL)
6 | Oc1c(Br)cc(Br)c2ccc(CNc3ccccc3)nc12 [HQ-3] |  |  | 62.5 µM (≈ 25.5 µg/mL) |  |  |  |  | 1.13 µM (≈ 0.461 µg/mL) |  | 0.15 µM (≈ 0.0612 µg/mL) |  | MIC [1, 19]: 0.78 µM (≈ 0.318 µg/mL); MIC ([6]; Staphylococcus epidermidis, 18 h, Table 2, ATCC 35984): 0.15 to 0.3 µM (≈ 0.0612 to 0.122 µg/mL); MIC ([2]; 18 h, Table 2, ATCC 700221): 0.39 to 0.78 µM (≈ 0.159 to 0.318 µg/mL); MIC ([2]; Table 2, ATCC 700221): 0.78 µM (≈ 0.318 µg/mL); MBC ([3]; Staphylococcus aureus, MRSA, Table 2, read-out: MRSA-2 Clinical Isolate MBC): 125 µM (≈ 51 µg/mL); MRSA-2 MBEC ([3]; Table 3, biofilm eradication, second value of MBC/MBEC cell): equipotent biofilm eradication activities; MBC ([4]; Table 2, planktonic killing, CBD, first value of cell, read-out: MRSE ATCC 35984 MBC): 7.8 µM (≈ 3.18 µg/mL); MBC ([5]; Table 2, planktonic killing, CBD, first value of cell, read-out: VRE ATCC 700221 MBC): 7.8 µM (≈ 3.18 µg/mL)
7 | CC(=O)NC[C@H]1CN(c2ccc(N3CCOCC3)c(F)c2)C(=O)O1 [Linezolid, reference compound] |  | 3.13 µM (≈ 1.06 µg/mL) | 31.3 µM (≈ 10.6 µg/mL) |  |  |  |  |  |  | 3.13 µM (≈ 1.06 µg/mL) | unable to eradicate | MIC [1, 19]: 3.13 µM (≈ 1.06 µg/mL); MIC ([1]; Table 3, at least three independent experiments, read-out: MRSA-2 MIC): 3.13 µM (≈ 1.06 µg/mL); MIC ([6]; Table 3): 3.13 µM (≈ 1.06 µg/mL); MIC ([2]; Table 2, ATCC 700221): 3.13 µM (≈ 1.06 µg/mL); % Haemolysis at 200 μM (human red blood cells; [20]): ≤1%; % Haemolysis at 200 μM (human red blood cells; Table 3, human red blood cells): ≤1%
8 | Oc1c(I)cc(I)c2ccc(CNc3ccc(Br)cc3)nc12 [RA-HQ-23] | 25 µM (≈ 14.5 µg/mL) | 25 µM (≈ 14.5 µg/mL) |  | > 1000 µM | 125 µM (≈ 72.6 µg/mL) | 31.3 µM (≈ 18.2 µg/mL) | 3.3% |  | 12.5 µM (≈ 7.26 µg/mL) |  |  | 
9 | CN[C@H](CC(C)C)C(=O)N[C@H]1C(=O)N[C@@H](CC(N)=O)C(=O)N[C@H]2C(=O)N[C@H]3C(=O)N[C@H](C(=O)N[C@H](C(=O)O)c4cc(O)cc(O)c4-c4cc3ccc4O)[C@H](O)c3ccc(c(Cl)c3)Oc3cc2cc(c3O[C@@H]2O[C@H](CO)[C@@H](O)[C@H](O)[C@H]2O[C@H]2C[C@](C)(N)[C@H](O)[C@H](C)O2)Oc2ccc(cc2Cl)[C@H]1O [Vancomycin, reference compound] |  | >100 µM |  |  |  |  |  |  |  |  | unable to eradicate | MIC [2]: > 100 µM; MBC (MRSA BAA-1707): 5.9 µM (≈ 8.55 µg/mL); MBC ([3]; Staphylococcus aureus, MRSA, read-out: MRSA-2 Clinical Isolate MBC, Table 2): 3 to 62.5 µM (≈ 4.35 to 90.6 µg/mL); MBC ([3]; Staphylococcus aureus, MRSA, read-out: MRSA-2 MBC, Table 3): 3 µM (≈ 4.35 µg/mL); MBC [3, 18]: 3.0 µM (≈ 4.35 µg/mL); MBC ([4]; read-out: MRSE ATCC 35984 MBC): 3 µM (≈ 4.35 µg/mL); MBC ([4]; read-out: MRSE MBC): 3 µM (≈ 4.35 µg/mL); MBC ([5]; read-out: VRE ATCC 700221 MBC): > 200 µM; MBC ([5]; read-out: VRE MBC): > 200 µM; % Haemolysis at 200 μM (human red blood cells; [20]): ≤1%; % Haemolysis at 200 μM (human red blood cells; Table 3, human red blood cells): ≤1%
